{
  "source": "patent US20250352555A1",
  "about": "“METHOD OF INCREASING IMMUNE CELL ACTIVATION AND/OR TREATING CANCER USING DIBENZOXAZEPINONES” (VASCULAR THERAPEUTICS PTY LTD, priority 2022, published 2025)",
  "key": {"PD-1": {"test_system": "PD-1", "assay": "Immunohistochemistry of B16F10 tumors (Day 17), PD-1", "format": "in vivo, mouse", "settings": "B16F10 tumors Day 17, 200 mg/kg i.p., vs vehicle", "text": "(§1) Immunohistochemical staining and analyses. Rabbit monoclonal anti-CD3 (cat. no. ab16669; mouse, rat and human reactive), rabbit monoclonal anti-PD-1 (cat. no. ab214421), rabbit monoclonal anti-CD68 (cat. no. ab125212) antibodies were obtained from Abcam, rabbit monoclonal anti-phospho-ERK (Thr^202/Tyr^204) (cat. no. CST4370), rabbit monoclonal total ERK (cat. no. CST4695), antibodies were obtained from Cell Signaling Technology. Rabbit polyclonal anti-PD-L1 (cat. no. PA5-20343) antibody was obtained from ThermoFisher.\n(§2) Formalin fixed, paraffin embedded sections were prepared from tumors. Heat-induced epitope retrieval was applied to all deparaffinized sections (4 μm sections on Superfrost slides) with citrate buffer, pH 6.0 for 5 min at 110° C. Sections were blocked with Dual Endogenous Enzyme Block (DAKO, S2003) for 10 min and then with 2% skim milk for 20 min. Slides were incubated with primary antibody for 60 min at room temperature or overnight at 4° C. and then for 10 min with probe of MACH3 Rabbit AP-Polymer Detection solution (Biocare Medical, M3R533 G, H, L). […] Integrated optical density (IOD) or area of positive staining (red chromagen) was assessed using Image-Pro Plus software (Cybernetics, Bethesda, MD, USA). Positive staining was the average of quantitation in 4-8 fields of view under 20× or 40× objectives. […]"}, "PD-L1": {"test_system": "PD-L1", "assay": "Immunohistochemistry of B16F10 tumors (Day 17), PD-L1", "format": "in vivo, mouse", "settings": "B16F10 tumors Day 17, 200 mg/kg i.p., vs vehicle", "text": "as §1, §2"}, "p-JNK": {"test_system": "p-JNK", "assay": "Western blotting time course for p-JNK, Jurkat T cells", "format": "cell-based, human", "settings": "Western blot time course", "procedure": "Western blotting. Cells were treated with compounds and times indicated and total cell lysates were prepared in RIPA buffer. Lysates (10 μg) were resolved by SDS-PAGE and transferred to Immobilon-P polyvinylidene difluoride (PVDF) membranes (Millipore, USA).\nMembranes were blocked with 5% skim milk and incubated with rabbit monoclonal anti-c-Jun (Abcam, cat. no. ab32137; mouse, rat and human reactive) antibody, rabbit monoclonal anti-PD-1 (Abcam, cat. no. ab214421) antibody, mouse monoclonal β-actin antibody (Sigma-Aldrich, cat. no. A5316), anti-phospho-SAPK/JNK (Thr^183/Tyr^185) (98F2) (CST, cat. no. 4671) antibody, anti-phospho-p44/42 MAPK (ERK1/2) (Thr^202/Tyr^204) (D13.14.4E) (CST, cat. no. 4370) antibody, anti-phospho-p38 MAPK (Thr^180/Tyr^182) (D3F9) (CST, cat. no. 4511) antibody, anti-SAPK/JNK antibody (CST, cat. no. 9252), anti-p44/42 MAPK (ERK1/2) (137F5) antibody (CST, cat. no. 4695), anti-p38 MAPK antibody (CST, cat. no. 9212), anti-DUSP8 antibody (Abcam, cat. no. ab198175) or anti-c-MAF (BLR045F) antibody (Abcam, cat. no. ab243901). […] Chemiluminescence was detected using the Western Lightning Chemiluminescence system (Thermo Scientific, USA) and ImageQuant™ LAS 4000 biomolecular imager (GE Healthcare Life Sciences, USA). Band intensity in images generated with the LAS 4000 was quantified using NIH Image J. […]"}},
  "data": [
    {"smiles": "CCOC(=O)Nc1ccc2c(c1)C(=O)N(CC)c1ccccc1O2", "note": "[BT2, (10-ethyl-11-oxo-10,11-dihydro-dibenzo[b,f][1,4]oxazepin-2-yl)-carbamic acid ethyl ester]", "values": [
      {"measurement": "PD-1 levels in tumors (IHC)", "setting": "PD-1", "value": "reduced"},
      {"measurement": "PD-L1 levels in tumors (IHC)", "setting": "PD-L1", "value": "increased"},
      {"measurement": "time to stimulation of JNK phosphorylation", "setting": "p-JNK", "value": "≤ 1", "unit": "h"}
    ]}
  ]
}
